Measured values: patent publication US10807951B2, “mTORC1 modulators” (THE REGENTS OF THE UNIVERSITY OF CALIFORNIA, priority 2017, dated 2020)

Experiments:
LAMTOR5 [1] = molecular target: T1, LAMTOR5 (Homo sapiens, UniProt O43504); experiment: Gel-based ABPP against IA-alkyne labeling of pure LAMTOR5 protein; assay type: binding
From the text: FIGS. 9A-9C. Potency and selectivity of YP 1-44 analogs. (FIG. 9A) initial YP 1-44 analogs and their relative potency against IA-alkyne labeling of pure human LAMTOR5 protein visualized by gel-based ABPP (a). Protein expression levels were also ascertained by silver staining (b). (FIG. 9B) Gel-based ABPP IA-alkyne cysteine-reactivity analysis of YP 1-44 analogs against Rag-Ragulator complex proteins (a). Protein expression levels were also ascertained by silver staining (b). (FIG. 9C) Hela whole cell proteome gel-based ABPP analysis of IA-alkyne cysteine-reactivity with YP 1-44 analogs (a). Protein expression levels were also ascertained by silver staining (b).
Thus, we performed medicinal chemistry to optimize the potency and selectivity of our initial hits by addition of further bulk to the core YP 1-44 scaffold (FIGS. 9A-9C; FIG. 5B). We initially screened these compounds against both LAMTOR5 and the Ragulator complex using gel-based ABPP methods competing the binding of these YP 1-44 analogs against IA-alkyne labeling of these proteins (FIG. 5C, FIG. 9). We also tested these compounds against Hela cell whole proteome cysteine reactivity to get initial read-outs of proteome-wide selectivity (FIGS. 9A-9C, FIG. 5D).

mTORC2 = experiment: p-AKT signaling in Hela cells by immunoblotting; assay type: cell-based; conditions: up to 50 μM
autophagy = experiment: Autophagy induction in tissues of injected mice; assay type: in vivo; conditions: 100 mg/kg vs rapamycin 10 mg/kg, heart, skeletal muscle, kidney
LAMTOR5 [2] = molecular target: T1, LAMTOR5; experiment: Rhodamine labeling with alkyne probe on purified Lamtor-Rag complexes; assay type: binding; conditions: excess unlabeled compound
From the text: FIGS. 8A-8B. (FIG. 8A) Structures of CC 2-11 and CC 1-44. CC 2-11 bears an alkyne group on a separate ring from the cysteine-reactive warhead. The presence of the alkyne group enables us to directly label the modified target protein (e.g. Lamtor5) with biotin or rhodamine groups, either in gels or in complex proteomes. […] Thus, CC 2-11 allows precise mapping of the target cysteines as well as accurate identification of the off-targets.
We also synthesized a CC 1-44 derivative, named CC 2-11, which bears an alkyne group on a separate ring from the cysteine-reactive warhead (FIG. 8A). The presence of the alkyne group enables us to directly label the modified target protein (e.g. Lamtor5) with biotin or rhodamine groups, either in gels or in complex proteomes. […] Thus, CC 2-11 will allow precise mapping of the target cysteines as well as accurate identification of the off-targets.

mTORC1 = mTORC1 signaling in tissues of injected mice; conditions: injection 100 mg/kg, heart, skeletal muscle, kidney
[3] = tested on: mTOR localization to LAMP2-positive lysosomes; experiment: mTORC1 recruitment assay, immunofluorescence in HeLa cells; assay type: cell-based; conditions: 50 μM, 1 h, amino acid stimulation
Protocol: (§1) Next, we sought to determine whether YP 1-44 had expected cellular effects in disrupting the TORC1 complex, recruitment of TORC1 to the lysosome, and TORC1 signaling. We treated Hela cells with YP 1-44 for 1 h with and without amino acid stimulation. […] This finding is consistent with the role of Lamtor as an obligate scaffold not only for mTORC1 but also for the Rag GTPases at the lysosome. […] Thus, our results establish that YP 1-44 abolishes mTORC1 signaling both in vitro and in live cells by preventing mTORC1 localization to the lysosome, and that this action occurs via disruption of the Lamtor-Rag scaffold.
HeLa cells were plated on fibronectin-coated glass coverslips in 6-well plates (35 mm diameter/well), at 300,000-500,000 cells/well. 12-16 hours later, cells were subjected to amino acid depletion for 1 h in the presence of 50 uM compounds or an equivalent volume of DMSO, restimulated with a complete amino acid mix for 10 minutes, and fixed in 4% paraformaldehyde (in PBS) for 15 min at RT. The coverslips were rinsed twice with PBS and cells were permeabilized with 0.1% (w/v) Saponin in PBS for 10 min. […]

RagC and RagA = experiment: Rag GTPase lysosomal localization, immunofluorescence in HeLa cells; assay type: cell-based; conditions: 50 μM, 1 h
Protocol: as §1
HeLa cells were plated on fibronectin-coated glass coverslips in 6-well plates (35 mm diameter/well), at 300,000-500,000 cells/well. 12-16 hours later, cells were subjected to amino acid depletion for 1 h in the presence of 50 uM compounds or an equivalent volume of DMSO, restimulated with a complete amino acid mix for 10 minutes, and fixed in 4% paraformaldehyde (in PBS) for 15 min at RT. The coverslips were rinsed twice with PBS and cells were permeabilized with 0.1% (w/v) Saponin in PBS for 10 min. After rinsing twice with PBS, the slides were incubated with primary antibody in 5% normal donkey serum for 1 hr at room temperature, rinsed four times with PBS, and incubated with fluorophore-conjugated secondary antibodies produced in goat or donkey (Life Technologies, diluted 1:1000 in 5% normal donkey serum) for 45 min at room temperature in the dark, washed four times with PBS. Coverslips were mounted on glass slides using Vectashield (Vector Laboratories) and imaged on a spinning disk confocal system (Andor Revolution on a Nikon Eclipse Ti microscope).

Compound	potency against IA-alkyne labeling of LAMTOR5 (LAMTOR5 [1])	effect on canonical mTORC2 substrate pAKT (mTORC2)	autophagy induction compared to rapamycin (autophagy)	autophagy induction compared to rapamycin (autophagy; listed as C 1-44)	competition of CC 2-11 rhodamine labeling signal (LAMTOR5 [2])	mTORC1 signaling as assessed by phospho-S6 and 4EBP1 (mTORC1)	amino acid-induced mTOR localization to LAMP2-positive lysosomes [3]	amino acid-induced mTOR localization to LAMP2-positive lysosomes ([3]; listed as YP1-44)	RagA localization to LAMP2-positive lysosomes (RagC and RagA)	RagC localization to LAMP2-positive lysosomes (RagC and RagA)	RagA localization to LAMP2-positive lysosomes (RagC and RagA; listed as YP1-44)	RagC localization to LAMP2-positive lysosomes (RagC and RagA; listed as YP1-44)
C=CC(=O)N1CCc2c(OCc3cc(C(F)(F)F)cc(C(F)(F)F)c3)cccc21 [CC 1-44]	desirable potency	did not affect	superior potency to rapamycin	much stronger autophagy induction as compared to rapamycin	competes	dramatic inhibition of mTORC1 signaling	–	–	–	–	–	–
C=CC(=O)n1ccc2ccccc21 [YP 1-44]	–	–	–	–	–	–	disrupts amino acid-induced mTOR localization	mTORC1 recruitment fails	no longer localized to the lysosome	no longer localized to the lysosome	causes dispersion of RagA from LAMP2-positive lysosomes	causes dispersion of RagC from LAMP2-positive lysosomes
